Measured values: patent US4683245A, “Laevorotatory antipode of moprolol as an antihypertensive” (SIMES S.p.A. Societa Italiana Medicinali e Sintetici, priority 1979, dated 1987)
Read-outs that look alike come from different tables or passages of the source.

How the values were obtained:
[1] = tested on: adrenergic beta-receptors; assay: Median effective Dose (ED50) in the dog; type: in vivo
Description: The data given in Table I evidence similar toxicity of the three different compounds.
In this regard the following Table II gives the respective data for the three compounds (±); (-); (+).

[2] = tested on: spontaneously beating right atrium preparations; assay: chronotropic effect on spontaneously beating right atria from reserpinized guinea-pigs; set-up: species or system guinea-pig
Experimental: Experiments were carried out on spontaneously beating right atrium preparations taken from the hearts of guinea-pigs of both sexes, weighing 300 to 400 g.
Twenty hrs before sacrifice the animals were injected intramuscularly with reserpine dissolved in 20% ascorbic acid in 2 doses of 2 mg/kg each at 24 hrs distance. An equal number of animals received the reserpine solvent only and were kept as controls.
The preparations were suspended in 10 ml vessels containing Krebs-Henseleitsolution aerated with […] and maintained at a temperature of 35° C.
The right atria were fixed to the vessel base by one end and connected to a transducer of a semiisometric microdynanometer (Basile) by the other end.
Heart rate was recorded directly from the tracing.
All the preparations were subjected to a reset traction of 0.6-0.8 g and allowed to stabilize for 1 hr before starting experiments.
The substances were placed in the vessel in cumulative concentrations. Each concentration was increased by three times as compared with the previous one and a 10 min. interspace was left between concentrations.
The control preparations were made by replacing in the vessel the only solvent (H2 O) in the same volumes as for the drug solutions. The effect excerted by the drug and the solvent on atrial rate was evaluated as per-cent variation as compared with baseline values. The significance of the differences between treated and control animals was assessed by Dunnett's test.
***In order to be able to compare the effect of combined doses of the
enantiomers with those of equal doses of the single enantiomers racemic
moprolol was used in concentration double with respect to the single

[3] = Lethal Dose50 (LD50) in the mouse; type: in vivo; conditions: mouse, in vivo, in the mouse
Description: (§1) In this regard the following Table I reports the LD50 of the single isomers and of the racemic product.

[4] = tested on: adrenergic beta-receptors; assay: inhibition of hemodynamic effects of isoproterenol (beta-receptor stimulation) in anesthetized dogs; type: in vivo, dog; conditions: isoproterenol 0.25 μg/Kg/minute i.v.; for beta-blocking activity (in words): anesthetized dogs, duodenal administration
Description: In order better to clarify the advantages connected with the use of pharmaceutical compositions according to the present invention, the attached drawings include three diagrams relating to certain experiments conducted in anesthetized dogs. These diagrams concern the inhibition by recemic moprolol, it laevorotatory optical isomer and its dextro-rotatory optical isomer, of certain homodynamic effects due to stimulation of the adrenergic beta-receptors following on intravenous infusion of isoproterenol at a dose of 0.25 μg/Kg/minute.
The curves therein reported refer to the means of the results of three tests for each substance.

mouse = assay: Lethal Dose50 (LD50) in the mouse; type: in vivo
Description: as §1

[5] = listed as laevorotatory moprolol
[6] = reserpinized guinea-pig right atrium
[7] = Cavia porcellus, read-out: Chronotropic effect (% variation)

## COc1ccccc1OCC(O)CNC(C)C (racemic) [Moprolol (±), 1-(o-methoxy-phenoxy)-3-isopropyl-amino-propane-2-ol]
[1]
  Median effective Dose (ED50): 0.150 mg/kg weight animal
[2]
  cardiac action (in words): cardiac depressant action
[2]; Cavia porcellus, column 1 × 10^-8, racemate used in double concentration vs single enantiomers, read-out: Chronotropic effect (% variation)
  activation at 0.01 µM: 0%
[3]
  LD50: 712 mg/kg

## CC(C)NCC(O)COc1cccc2ccccc12 (single isomer, unassigned) [Moprolol 1-propanolol]
[2]; 1 × 10^-4 M
  atr. block (preparations blocked / total): 4/4
[2]; 1 × 10^-4 M, vs baseline, mean ± S.E.
  Chronotropic effect (% variation): atr. block
[2]; Cavia porcellus, 1 × 10^-5 M, vs baseline, mean ± S.E., read-out: Chronotropic effect (% variation)
  activation at 10 µM: -21.5%
[2]; Cavia porcellus, 1 × 10^-6 M, vs baseline, mean ± S.E., read-out: Chronotropic effect (% variation)
  activation at 1 µM: -5.7%
[2]; Cavia porcellus, 1 × 10^-7 M, vs baseline, mean ± S.E., read-out: Chronotropic effect (% variation)
  activation at 0.1 µM: -2%
[2]; Cavia porcellus, 1 × 10^-8 M, vs baseline, mean ± S.E., read-out: Chronotropic effect (% variation)
  activation at 0.01 µM: -0.5%
[2]; Cavia porcellus, 3 × 10^-5 M, vs baseline, mean ± S.E., read-out: Chronotropic effect (% variation)
  activation at 30 µM: -37%
[2]; Cavia porcellus, 3 × 10^-6 M, vs baseline, mean ± S.E., read-out: Chronotropic effect (% variation)
  activation at 3 µM: -11.2%
[2]; Cavia porcellus, 3 × 10^-7 M, vs baseline, mean ± S.E., read-out: Chronotropic effect (% variation)
  activation at 0.3 µM: -3.5%
[2]; Cavia porcellus, 3 × 10^-8 M, vs baseline, mean ± S.E., read-out: Chronotropic effect (% variation)
  activation at 0.03 µM: -0.75%
[2]; Cavia porcellus, reserpinized guinea-pig right atrium, read-out: concentration from which depressant effect on atrial rate starts
  minimal effective concentration: ≥ 1 µM
[2]; reserpinized guinea-pig right atrium, listed as Laevorotatory isomer of propanolol
  effect on atrial rate (in words): no stimulant effect but a depressant effect
[2]; reserpinized guinea-pig right atrium, listed as laevorotatory isomer of propanolol
  effect on atrial rate (in words): more marked than that evoked by laevorotatory isomer, dextro-rotatory isomer and racemic moprolol

## COc1ccccc1OCC(O)CNC(C)C (single isomer, unassigned) [Moprolol (+)]
[4]; listed as dextro-rotatory isomer
  beta-blocking activity (in words): practically nil
[4]; listed as dextrorotatory optical isomer
  beta-blocking activity (in words): almost complete lack of beta-blocking activity
[1]
  Median effective Dose (ED50): nil
  activity at effective dose (in words): without any activity whatsoever
[2]; 1 × 10^-4 M, vs baseline, mean ± S.E., listed as d-moprolol
  Chronotropic effect (% variation): -37.5%
[2]; 1 × 10^-5 M, vs baseline, mean ± S.E., listed as d-moprolol
  Chronotropic effect (% variation): -7.25%
[2]; 1 × 10^-6 M, vs baseline, mean ± S.E., listed as d-moprolol
  Chronotropic effect (% variation): -2%
[2]; 1 × 10^-7 M, vs baseline, mean ± S.E., listed as d-moprolol
  Chronotropic effect (% variation): -2.7%
[2]; 1 × 10^-8 M, vs baseline, mean ± S.E., listed as d-moprolol
  Chronotropic effect (% variation): -1.25%
[2]; 3 × 10^-5 M, vs baseline, mean ± S.E., listed as d-moprolol
  Chronotropic effect (% variation): -14.7%
[2]; 3 × 10^-6 M, vs baseline, mean ± S.E., listed as d-moprolol
  Chronotropic effect (% variation): -6%
[2]; 3 × 10^-7 M, vs baseline, mean ± S.E., listed as d-moprolol
  Chronotropic effect (% variation): -2.7%
[2]; 3 × 10^-8 M, vs baseline, mean ± S.E., listed as d-moprolol
  Chronotropic effect (% variation): -4%
[2]; reserpinized guinea-pig right atrium, listed as Dextro-rotatory isomer of moprolol
  effect on atrial rate (in words): no stimulant effect in a range of concentrations which have proved to be active for laevorotatory isomer of moprolol. On the contrary, they give rise to a depressant effect
mouse; LD50, mouse
  toxicity (in words): same toxicity as the laevorotatory isomer and the racemic form
mouse; in the mouse
  Lethal Dose50 (LD50): 720 mg/kg weight animal

## COc1ccccc1OCC(O)CNC(C)C (single isomer, unassigned) [Moprolol (-)]
[4]; 0.25, 0.0625 and 0.125 mg/kg
  significance (P) of correlation coefficient of dose-dependent inhibition: < 0.01
[4]; listed as laevoratatory isomer of moprolol
  beta-blocking activity (in words): exactly double that of racemic moprolol
[4]; [5]
  beta-blocking activity (in words): particularly evident for the laevorotatory form in a dose-dependent manner
[1]
  Median effective Dose (ED50): 0.0781 mg/kg weight animal
[1]; effective dose
  activity relative to the racemic form (times more active): 2 times
[1]; [5]
  Median effective Dose (ED50): 0.0781 mg/kg weight animal
[2]
  cardiac action (in words): cardiac stimulant action
[2]; 1 × 10^-4 M, vs baseline, mean ± S.E., listed as 1-moprolol
  Chronotropic effect (% variation): -10.8%
[2]; 1 × 10^-5 M, vs baseline, mean ± S.E., listed as 1-moprolol
  Chronotropic effect (% variation): +4%
[2]; 1 × 10^-6 M, vs baseline, mean ± S.E., listed as 1-moprolol
  Chronotropic effect (% variation): +8.8%
[2]; 1 × 10^-7 M, vs baseline, mean ± S.E., listed as 1-moprolol
  Chronotropic effect (% variation): +10.4%
[2]; 1 × 10^-8 M, vs baseline, mean ± S.E., listed as 1-moprolol
  Chronotropic effect (% variation): +8.2%
[2]; 3 × 10^-5 M, vs baseline, mean ± S.E., listed as 1-moprolol
  Chronotropic effect (% variation): +0.2%
[2]; 3 × 10^-6 M, vs baseline, mean ± S.E., listed as 1-moprolol
  Chronotropic effect (% variation): +7.8%
[2]; 3 × 10^-7 M, vs baseline, mean ± S.E., listed as 1-moprolol
  Chronotropic effect (% variation): +10.4%
[2]; 3 × 10^-8 M, vs baseline, mean ± S.E., listed as 1-moprolol
  Chronotropic effect (% variation): +11.4%
[2]; [6]
  concentration range of stimulant effect on atrial rate: 10 to 1000 nM
[2]; reserpinized guinea-pig right atrium, listed as Laevorotatory isomer of moprolol
  effect on atrial rate (in words): causes a stimulant effect on atrial rate
[3]
  LD50: 605 mg/kg

## Cl.NCCc1ccc(O)cc1 [Tyramine HCl]
[2]; [7]
  activation at 0.1 µM: 0%
  activation at 0.3 µM: 0%
  activation at 1 µM: 0%
  activation at 3 µM: 0%
  activation at 10 µM: -1 ± 1%
  activation at 30 µM: -3%
  activation at 100 µM: -3%
[2]; [6]
  effect on atrial rate (in words): devoid of positive chronotropic effect
